From patent publication US10646494B2, “Heterocycle-substituted tetracyclic compounds and methods of use thereof for the treatment of viral diseases” (Merck Sharp & Dohme Corp., priority 2016, dated 2020)
Like-named read-outs stand apart in the source and are kept apart here.

Legend:
Set-up in all cases: species or system Hepatitis C virus (HCV)
HCV replicon 1B = assay: Cell-based HCV replicon assay (Replicon Assay B), replicon 1B; details: replicon RNA by real-time PCR, incubated for 3 days
Procedure: In an alternate assay (“Replicon Assay B”), 1000 cells were seeded per well in a 384-well collagen coated black plate from Greiner bio-one (Cat #781946) in 5% FBS. Inhibitors of this invention were added at 24 h post-seeding, and the plates were incubated for 3 days. Cells were subsequently lysed with Qiagen lysis buffer (Cat #1062731) to extract the RNA. HCV replicon RNA level was measured by real-time PCR using the RNA-to-CT kit from Applied Biosystem (Cat #4392656) and genotype-specific primers and probes. The amplicon was located within NSSB. The sequence of the PCR primers are as follows: 5B.2F, ATGGACAGGCGCCCTGA (SEQ. ID NO. 1); 5B.2R, […] (SEQ. ID NO. 2); the probe sequence was FAM-labeled CACGCCATGCGCTGCGG (SEQ. ID NO. 3). To detect genotype 1A the primer 1A F, TGCGGAACCGGTGAGTACA and 1A R, […] were used; the probe sequence was FAM-[…].
The real-time RT-PCR reactions were run on ABI PRISM 7900HT or Viia7 Sequence Detection System using the following program: 48° C. for 30 minutes, 95° C. for 10 minutes, 40 cycles of 95° C. for 15 sec, 60° C. for 1 minutes. The 50% effective concentration (EC50) was the drug concentration necessary to achieve an increase in the cycle threshold (CT) of 1 over the projected baseline CT.
(§1) Data was obtained for various compounds of the present invention using the methods described in the Example above, and is presented in the table immediately below. Data for replicons 1A, 1AY93H and 2B were obtained using Replicon Assay A and data for replicons 1B were obtained using Replicon Assay B.

HCV replicon 2B = assay: Cell-based HCV replicon assay (Replicon Assay A), replicon 2B; details: read-out: Replicon EC50 (nM) 2B, replicon 2B, replicon RNA by real time PCR, cells harvested on day 3
Procedure: (§2) To measure cell-based anti-HCV activity of compounds of the present invention, two complimentary assays were employed using various replicons. In the first assay (“Replicon Assay A”), replicon cells were seeded at 2000 cells/well in 384-well 384-well flat bottom tissue culture treated clear bottom plate (Corning 3707) in the presence of the test compound. Various concentrations of test compound, typically in 10 serial dilutions, were added to the assay mixture, with the starting concentration ranging from 333.3 nM to […]. The final concentration of DMSO was 0.5%. Fetal bovine serum was 5%, in the assay media. Cells were harvested on day 3 by removing media and washing the cells with a suitable wash buffer. The cells are lysed with the addition of 1× Qiagen lysis buffer (Cat #1062731). The replicon RNA level was measured using real time PCR (TaqMan® EZ RT-PCR, Applied Biosystems 403028) with the following primers and probes: […]
(§3) Cyclophilin RNA was used as endogenous control and was amplified in the same reaction as NS5B (multiplex PCR). The real-time RT-PCR reactions were run on ABI PRISM 7900HT Sequence Detection System using the following program: 50° C. for 2 minutes, 60° C. for 30 minutes, 95° C. for 5 minutes, 40 cycles of 94° C. for 20 sec, 55° C. for 1 minutes.
(§4) The amount of HCV replicon RNA per cell is quantified using a linear regression curve for a known nanogram (ng) amount of HCV replicon total RNA. This is established by plotting the Cycle Threshold values (Ct) from the Neo probe and primer set versus the log (ng) for each HCV replicon total RNA standard. The amount of HCV RNA for each replicon sample is calculated by taking the sample's Ct value, minus the line intercept, divided by the slope of the line. Similarly, the amount of Cyclophilin mRNA per cell is also quantified using a linear regression curve for a known nanogram (ng) amount of HCV replicon total RNA. Again, this is established by plotting the Cycle Threshold values (Ct) from the Cyclophilin probe and primer set versus the log (ng) for each HCV replicon total RNA standard.
as §1

HCV replicon 1A Y93H = assay: Cell-based HCV replicon assay (Replicon Assay A), replicon 1AY93H; details: read-out: Replicon EC50 (nM) 1A Y93H, replicon 1A Y93H, replicon RNA by real time PCR, cells harvested on day 3
Procedure: as §2, §3, §4, §1

HCV replicon 1A = assay: Cell-based HCV replicon assay (Replicon Assay A), replicon 1A; details: replicon RNA by real time PCR, cells harvested on day 3
Procedure: as §2, §3, §4, §1

Row | Structure (SMILES) | EC50 (HCV replicon 1B; Hepatitis C virus, 72 h) [nM] | EC50 (HCV replicon 2B; Hepatitis C virus, 72 h) [nM] | EC50 (HCV replicon 1A Y93H; Hepatitis C virus, 72 h) [nM] | EC50 (HCV replicon 1A; Hepatitis C virus, 72 h) [nM] | EC50 (HCV replicon 2B) [nM] | EC50 (HCV replicon 1A Y93H) [nM] | EC50 (HCV replicon 1A) [nM] | EC50 (HCV replicon 1B) [nM]
1 | COC(=O)N[C@H](C(=O)N1CCC[C@H]1c1ncc(-c2cc(F)c3c(c2)OC(c2cc(C(C)C)no2)n2c-3cc3cc(-c4cnc([C@@H]5CCCN5C(=O)[C@@H](NC(=O)OC)C(C)C)[nH]4)ccc32)[nH]1)C(C)C (mixture of isomers) [Compound 6] | 0.0018 | 0.36 | 0.088 | 0.0017 | – | – | – | –
2 | COC(=O)N[C@H](C(=O)N1CCC[C@H]1c1ncc(-c2cc(F)c3c(c2)OC(c2csnn2)n2c-3cc3cc(-c4cnc([C@@H]5CCCN5C(=O)[C@@H](NC(=O)OC)C(C)C)[nH]4)ccc32)[nH]1)C(C)C (mixture of isomers) [Compound 37] | 0.0036 | 1.32 | 0.857 | 0.004 | – | – | – | –
3 | COC(=O)N[C@H](C(=O)N1CCC[C@H]1c1ncc(-c2cc(F)c3c(c2)OC(c2nc4ccccc4o2)n2c-3cc3cc(-c4cnc([C@@H]5CCCN5C(=O)[C@@H](NC(=O)OC)C(C)C)[nH]4)ccc32)[nH]1)C(C)C (single isomer, unassigned) [Compound 20] | 0.0026 | – | – | – | 0.32 | 0.075 | 0.0023 | –
4 | COC(=O)N[C@H](C(=O)N1CCC[C@H]1c1ncc(-c2cc(F)c3c(c2)OC(c2cnns2)n2c-3cc3cc(-c4cnc([C@@H]5CCCN5C(=O)[C@@H](NC(=O)OC)C(C)C)[nH]4)ccc32)[nH]1)C(C)C (single isomer, unassigned) [Compound 22] | 0.0024 | – | – | 0.0015 | 0.14 | 0.048 | – | –
5 | COC(=O)N[C@H](C(=O)N1CCC[C@H]1c1ncc(-c2cc(F)c3c(c2)OC(c2cc(C(C)C)no2)n2c-3cc3cc(-c4cnc([C@@H]5CCCN5C(=O)[C@@H](NC(=O)OC)C(C)C)[nH]4)ccc32)[nH]1)C(C)C (single isomer, unassigned) [Compound 25] | 0.0011 | – | – | 0.0012 | 0.3 | 0.026 | – | –
6 | COC(=O)N[C@H](C(=O)N1CCC[C@H]1c1ncc(-c2cc(F)c3c(c2)OC(c2cc(C4CC4)no2)n2c-3cc3cc(-c4cnc([C@@H]5CCCN5C(=O)[C@@H](NC(=O)OC)C(C)C)[nH]4)ccc32)[nH]1)C(C)C (single isomer, unassigned) [Compound 30] | 0.0017 | – | – | 0.0012 | 0.06 | 0.026 | – | –
7 | COC(=O)N[C@H](C(=O)N1CCC[C@H]1c1ncc(-c2cc(F)c3c(c2)OC(c2nc(C(C)C)ns2)n2c-3cc3cc(-c4cnc([C@@H]5CCCN5C(=O)[C@@H](NC(=O)OC)C(C)C)[nH]4)ccc32)[nH]1)C(C)C (single isomer, unassigned) [Compound 31] | – | 1.64 | – | 0.0013 | – | 5.65 | – | –
8 | COC(=O)N[C@H](C(=O)N1CCC[C@H]1c1ncc(-c2cc(F)c3c(c2)OC(c2nc(C(C)C)ns2)n2c-3cc3cc(-c4cnc([C@@H]5CCCN5C(=O)[C@@H](NC(=O)OC)C(C)C)[nH]4)ccc32)[nH]1)C(C)C (single isomer, unassigned) [Compound 32] | – | – | – | – | 0.9 | 0.185 | 0.0022 | –
9 | CCc1nnc(C2Oc3cc(-c4cnc([C@@H]5CCCN5C(=O)[C@@H](NC(=O)OC)C(C)C)[nH]4)cc(F)c3-c3cc4cc(-c5cnc([C@@H]6CCCN6C(=O)C(NC(=O)OC)C(C)C)[nH]5)ccc4n32)s1 (single isomer, unassigned) [Compound 33] | 0.0026 | – | – | – | – | – | 0.0028 | –
10 | COC(=O)N[C@H](C(=O)N1CCC[C@H]1c1ncc(-c2cc(F)c3c(c2)OC(c2coc(C4CC4)n2)n2c-3cc3cc(-c4cnc([C@@H]5CCCN5C(=O)[C@@H](NC(=O)OC)C(C)C)[nH]4)ccc32)[nH]1)C(C)C (single isomer, unassigned) [Compound 35] | 0.003 | – | – | 0.0034 | – | – | – | –
11 | COC(=O)N[C@H](C(=O)N1CCC[C@H]1c1ncc(-c2cc(F)c3c(c2)OC(c2coc(C4CC4)n2)n2c-3cc3cc(-c4cnc([C@@H]5CCCN5C(=O)[C@@H](NC(=O)OC)C(C)C)[nH]4)ccc32)[nH]1)C(C)C (single isomer, unassigned) [Compound 36] | – | 0.11 | 0.102 | – | – | – | 0.0023 | 0.0029
12 | COC(=O)N[C@H](C(=O)N1CCC[C@H]1c1ncc(-c2cc(F)c3c(c2)OC(c2cc4ccccn4n2)n2c-3cc3cc(-c4cnc([C@@H]5CCCN5C(=O)[C@@H](NC(=O)OC)C(C)C)[nH]4)ccc32)[nH]1)C(C)C (single isomer, unassigned) [Compound 39] | – | – | – | – | 0.33 | 1.66 | 0.0068 | –
13 | COC(=O)N[C@H](C(=O)N1CCC[C@H]1c1ncc(-c2cc(F)c3c(c2)OC(c2cc4ccccn4n2)n2c-3cc3cc(-c4cnc([C@@H]5CCCN5C(=O)[C@@H](NC(=O)OC)C(C)C)[nH]4)ccc32)[nH]1)C(C)C (single isomer, unassigned) [Compound 40] | – | – | – | – | 1.54 | 0.536 | 0.0084 | –
14 | COC(=O)N[C@H](C(=O)N1CCC[C@H]1c1ncc(-c2cc(F)c3c(c2)OC(c2cc4ccccn4n2)n2c-3cc3cc(-c4cnc([C@@H]5CCCN5C(=O)[C@@H](NC(=O)OC)C(C)C)[nH]4)ccc32)[nH]1)C(C)C (single isomer, unassigned) [Compound 41] | – | – | – | – | 0.57 | 0.317 | 0.0019 | –
15 | COC(=O)N[C@H](C(=O)N1CCC[C@H]1c1ncc(-c2cc(F)c3c(c2)OC(c2cn4ccccc4n2)n2c-3cc3cc(-c4cnc([C@@H]5CCCN5C(=O)[C@@H](NC(=O)OC)C(C)C)[nH]4)ccc32)[nH]1)C(C)C (stereo partly shown) [Compound 14] | 0.0078 | – | – | 0.0057 | – | – | – | –
16 | COC(=O)N[C@H](C(=O)N1CCC[C@H]1c1ncc(-c2ccc3c(c2)OC(c2ccc(C)o2)n2c-3cc3cc(-c4cnc([C@@H]5CCCN5C(=O)[C@@H](NC(=O)OC)C(C)C)[nH]4)ccc32)[nH]1)C(C)C (stereo partly shown) [Compound 42] | – | 6.16 | 5.01 | 0.0309 | – | – | – | –
17 | COC(=O)N[C@H](C(=O)N1CCC[C@H]1c1ncc(-c2ccc3c(c2)OC(c2ccc(C)o2)n2c-3cc3cc(-c4cnc([C@@H]5C[C@@H](F)CN5C(=O)[C@@H](NC(=O)OC)C(C)C)[nH]4)ccc32)[nH]1)C(C)C (stereo partly shown) [Compound 43] | – | 0.06 | 1.02 | 0.0281 | – | – | – | –
